The record followed here is ChEMBL document CHEMBL3039007, “Structure-based identification of OATP1B1/3 inhibitors” (Mol Pharmacol, 2013).

The term residual activity denotes the signal under treatment as a percentage of the control signal.

Where a name gives a salt, the structure may show the parent alone.

Data set [1] concerns the target T1, Solute carrier organic anion transporter family member 1B3 (Homo sapiens, UniProt Q9NPD5).
T1 sequence (Q9NPD5 whole entry): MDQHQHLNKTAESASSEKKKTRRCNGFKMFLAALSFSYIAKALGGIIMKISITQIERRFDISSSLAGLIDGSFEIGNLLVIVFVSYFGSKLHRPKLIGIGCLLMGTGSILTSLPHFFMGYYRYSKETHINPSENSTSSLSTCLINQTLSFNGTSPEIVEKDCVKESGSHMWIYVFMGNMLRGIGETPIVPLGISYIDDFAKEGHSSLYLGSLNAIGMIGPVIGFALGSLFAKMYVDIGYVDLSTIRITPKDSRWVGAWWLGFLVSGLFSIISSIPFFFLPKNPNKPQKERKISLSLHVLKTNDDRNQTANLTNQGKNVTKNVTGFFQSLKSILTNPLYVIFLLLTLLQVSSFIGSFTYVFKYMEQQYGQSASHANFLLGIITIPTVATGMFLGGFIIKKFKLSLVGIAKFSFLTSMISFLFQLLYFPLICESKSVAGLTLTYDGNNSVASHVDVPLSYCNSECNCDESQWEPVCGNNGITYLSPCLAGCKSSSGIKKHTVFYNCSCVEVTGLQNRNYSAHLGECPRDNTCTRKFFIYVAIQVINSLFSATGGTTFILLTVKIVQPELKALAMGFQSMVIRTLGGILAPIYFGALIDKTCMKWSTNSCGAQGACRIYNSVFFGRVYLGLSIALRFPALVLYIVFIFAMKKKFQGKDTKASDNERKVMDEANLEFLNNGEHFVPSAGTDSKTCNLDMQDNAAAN
The following applies: chinese hamster, cho, 10 µM.

The target in data set [2] is T2, Solute carrier organic anion transporter family member 1B1 (Homo sapiens, UniProt Q9Y6L6).
T2 sequence (Q9Y6L6 whole entry): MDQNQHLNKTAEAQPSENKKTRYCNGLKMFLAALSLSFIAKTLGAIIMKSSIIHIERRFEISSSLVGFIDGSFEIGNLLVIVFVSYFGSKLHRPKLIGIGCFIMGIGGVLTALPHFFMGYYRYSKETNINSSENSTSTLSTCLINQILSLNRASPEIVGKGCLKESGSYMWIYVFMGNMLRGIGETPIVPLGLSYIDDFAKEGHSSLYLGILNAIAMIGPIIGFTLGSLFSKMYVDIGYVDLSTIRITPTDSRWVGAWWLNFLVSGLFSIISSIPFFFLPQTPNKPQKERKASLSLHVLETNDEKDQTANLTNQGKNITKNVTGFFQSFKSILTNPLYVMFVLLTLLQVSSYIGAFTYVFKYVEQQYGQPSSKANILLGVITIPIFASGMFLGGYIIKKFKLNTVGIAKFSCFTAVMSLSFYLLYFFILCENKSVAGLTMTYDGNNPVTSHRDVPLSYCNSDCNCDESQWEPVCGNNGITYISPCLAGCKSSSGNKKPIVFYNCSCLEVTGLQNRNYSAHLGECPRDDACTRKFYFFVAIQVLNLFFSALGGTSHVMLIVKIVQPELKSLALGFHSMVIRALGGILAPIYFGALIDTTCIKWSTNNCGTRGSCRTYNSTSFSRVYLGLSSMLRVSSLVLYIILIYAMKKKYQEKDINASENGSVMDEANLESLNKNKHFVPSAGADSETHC
As to conditions: chinese hamster, cho, 10 µM.

On to `CCOC(=O)c1ccc(N)cc1` [BENZOCAINE], for which the residual activity is reported as 100.6% in data set [1] and 129.5% in data set [2].
`NS(=O)(=O)c1cc2c(cc1Cl)N=C(CSCc1ccccc1)NS2(=O)=O` [BENZTHIAZIDE]: the residual activity in data set [1] amounted to 56.86%; in data set [2] it was 74.12%.
As to `O=C(OCc1ccccc1)c1ccccc1` [BENZYL BENZOATE], the figures for the residual activity in data set [1] and in data set [2] were 74.09% and 125.1%, respectively.
Take `S=C=NCc1ccccc1` [BENZYL ISOTHIOCYANATE]: the figures for the residual activity in data set [1] and in data set [2] were 101.9% and 170.7%, respectively.
With `Cl.NNCc1ccccc1` [BENZYLHYDRAZINE HYDROCHLORIDE], the residual activity in data set [1] was 108.9%; in data set [2], 122.4%.
In the case of `CC(C)COCC(CN(Cc1ccccc1)c1ccccc1)N1CCCC1.Cl.O` (stereo not given) [BEPRIDIL HYDROCHLORIDE], the figures for the residual activity in data set [1] and in data set [2] were 131.3% and 124.1%, respectively.
On the same counts, the results for `COc1ccc2cc3[n+](cc2c1OC)CCc1cc2c(cc1-3)OCO2.[Cl-]` [BERBERINE CHLORIDE] are 108.4% and 110.4%.
On the same counts, the results for `COc1c2ccoc2cc2oc(=O)ccc12` [BERGAPTEN] are 97.44% and 93.84%.
With `COc1c(O)cc2c(c1O)[C@@H]1O[C@H](CO)[C@@H](O)[C@H](O)[C@H]1OC2=O` [BERGENIN], the residual activity in data set [1] came to 94.52%; in data set [2] it was 14.59%.
On the same counts, the results for `C=C1CC/C=C(\C)CC[C@@H]2[C@@H]1CC2(C)C` [BETA-CARYOPHYLLENE] are 88.67% and 99.94%.
Regarding `COc1cc([C@@H]2c3cc4c(c(O)c3C[C@H]3COC(=O)[C@@H]32)OCO4)cc(OC)c1OC` [BETA-PELTATIN A], the residual activity in data set [1] was 101.7%; in data set [2], 78.87%.
As to `C[N+](C)(C)CC(=O)O.[Cl-]` [BETAINE HYDROCHLORIDE], the figures for the residual activity in data set [1] and in data set [2] were 113.7% and 82.22%, respectively.
On the same counts, the results for `CCCCC(=O)O[C@]1(C(=O)CO)[C@@H](C)C[C@H]2[C@@H]3CCC4=CC(=O)C=C[C@]4(C)[C@@]3(F)[C@@H](O)C[C@@]21C` [BETAMETHASONE VALERATE] are 10.24% and 38.6%.
On the same counts, the results for `C[C@H]1C[C@H]2[C@@H]3CCC4=CC(=O)C=C[C@]4(C)[C@@]3(F)[C@@H](O)C[C@]2(C)[C@@]1(O)C(=O)CO` [BETAMETHASONE] are 102.7% and 76.17%.
Regarding `O=C(O)CCNC(=O)c1ccccc1` [BETAMIPRON], the residual activity in data set [1] turned out to be 92.61%; in data set [2] it was 116.1%.
`CC(C[N+](C)(C)C)OC(N)=O.[Cl-]` (stereo not given) [BETHANECHOL CHLORIDE]: the values for the residual activity in data set [1] and in data set [2] were 100% and 111.1%, respectively.
For `C[N+]1(C)C[C@@H](O)C[C@@H]1C(=O)[O-]` [BETONICINE], the residual activity in data set [1] came to 105.3%; in data set [2] it was 89.8%.
Consider `C=C(C)[C@@H]1CC[C@]2(C(=O)O)CC[C@]3(C)[C@H](CC[C@@H]4[C@@]5(C)CC[C@H](O)C(C)(C)[C@@H]5CC[C@]43C)[C@@H]12` [BETULINIC ACID], for which the residual activity in data set [1] came out at 38.62%; in data set [2] it was 25.94%.
For the compound `C=C(C)[C@@H]1CC[C@]2(CO)CC[C@]3(C)[C@H](CC[C@@H]4[C@@]5(C)CC[C@H](O)C(C)(C)[C@@H]5CC[C@]43C)[C@@H]12` [BETULIN], the residual activity is reported as 92.43% in data set [1] and 106.3% in data set [2].
As for `CC(C)(Oc1ccc(CCNC(=O)c2ccc(Cl)cc2)cc1)C(=O)O` [BEZAFIBRATE], the values for the residual activity in data set [1] and in data set [2] were 74.47% and 72.82%, respectively.
Take `c1ccc(-c2ccc(C(c3ccccc3)n3ccnc3)cc2)cc1` (stereo not given) [BIFONAZOLE]: the figures for the residual activity in data set [1] and in data set [2] were 115.7% and 121.1%, respectively.
Turning to `COc1ccc(-c2coc3cc(OC)cc(OC)c3c2=O)cc1` [BIOCHANIN A, DIMETHYL ETHER], the residual activity is 81.69% in data set [1] and 100.7% in data set [2].
For `COc1ccc(-c2coc3cc(O)cc(O)c3c2=O)cc1` [BIOCHANIN], the residual activity worked out at 113.5% in data set [1] and 98.38% in data set [2].
As to `O=C(O)CCCC[C@@H]1SC[C@@H]2NC(=O)N[C@@H]21` [BIOTIN], the residual activity in data set [1] was found to be 96.7%; in data set [2], 93.06%.
Turning to `CC(=O)O[C@@](C)(CCC=C(C)C)C1CC=C(C)CC1` (stereo not given in full) [BISABOLOL ACETATE], the residual activity in data set [1] is on record as 92.66%; in data set [2] it was 80.65%.
On the same counts, the results for `CC(=O)Oc1ccc(C(c2ccc(OC(C)=O)cc2)c2ccccn2)cc1` [BISACODYL] are 103.3% and 97.08%.
On the same counts, the results for `CCc1ccc2c(O)c3c(cc2c1C(=O)OC)C(=O)c1c(O)ccc(O)c1C3=O` [BISANHYDRORUTILANTINONE] are 115.2% and 104.1%.
Turning to `O=C(/C=C/C(=O)Oc1ccccc1C(=O)O)Oc1ccccc1C(=O)O` [BISSALICYL FUMARATE], the residual activity amounted to 99.92% in data set [1] and 104.8% in data set [2].
On the same counts, the results for `COc1cc2c(cc1O)C[C@H]1c3c(cc(O)c(OC)c3-2)CCN1C` [BOLDINE] are 100.1% and 47.95%.
Take `O=C1C=C2CC3(O)COc4cc(O)ccc4C3=C2C=C1O` (stereo not given) [BRAZILEIN]: the residual activity in data set [1] is listed as 95.51%; in data set [2] it was 96.33%.
With `Oc1ccc2c(c1)OC[C@]1(O)Cc3cc(O)c(O)cc3[C@H]21` [BRAZILIN], the residual activity in data set [1] worked out at 101.4%; in data set [2], 117.2%.
On the same counts, the results for `CC(=O)[C@H]1CC[C@H]2[C@@H]3CC[C@H]4C[C@H](O)CC[C@]4(C)[C@H]3CC[C@]12C` [BREXANOLONE] are 89.68% and 41.5%.
As to `CN(Cc1cc(Br)cc(Br)c1N)C1CCCCC1.Cl` [BROMHEXINE HYDROCHLORIDE], the residual activity in data set [1] is 95.98%; in data set [2], 103.1%.
For the compound `CC1(C)CC2C1CC[C@]1(CBr)CCC3C(CC(=O)O)C(=O)O[C@@]32C1` (stereo not given in full) [BROMO-3-HYDROXY-4-(SUCCIN-2-YL)-CARYOLANE gamma-LACTONE], the figures for the residual activity in data set [1] and in data set [2] were 50.1% and 26.83%, respectively.
Consider `CC(C)C[C@H]1C(=O)N2CCC[C@H]2[C@]2(O)O[C@](NC(=O)[C@@H]3C=C4c5cccc6[nH]c(Br)c(c56)C[C@H]4N(C)C3)(C(C)C)C(=O)N12.CS(=O)(=O)O` [BROMOCRIPTINE MESYLATE], for which the residual activity is 84.69% in data set [1] and 67.37% in data set [2].
On the same counts, the results for `CN(C)CCC(c1ccc(Br)cc1)c1ccccn1.O=C(O)/C=C\C(=O)O` (stereo not given) [BROMPHENIRAMINE MALEATE] are 90.7% and 88.52%.
Consider `Oc1c(Br)cc(Br)c2cccnc12` [BROXYQUINOLINE], for which the residual activity is 75.68% in data set [1] and 57.32% in data set [2].
On to `COc1cc2c(cc1OC)[C@@]13CCN4CC5=CCO[C@H]6CC(=O)N2[C@H]1[C@H]6[C@H]5C[C@H]43` [BRUCINE], for which the residual activity in data set [1] came to 229.8%; in data set [2], 117.9%.
`CCCC(=O)Nc1ncnc2c1ncn2[C@@H]1O[C@@H]2COP(=O)(O)O[C@H]2[C@H]1OC(=O)CCC` [BUCLADESINE]: the residual activity in data set [1] is given as 88.95%; in data set [2], 116%.
In the case of `COc1ccc(-c2cc(=O)c3c(O)cc(O[C@H]4O[C@H](CO[C@@H]5O[C@@H](C)[C@H](O)[C@@H](O)[C@H]5O)[C@@H](O)[C@H](O)[C@H]4O)cc3o2)cc1` [BUDDLEOFLAVONOLOSIDE], the residual activity in data set [1] is 212.4%; in data set [2], 69.14%.
